Test results taken from patent publication US9688710B2, “Inhibitors of sodium glucose cotransporter 1” (LEXICON PHARMACEUTICALS, INC., priority 2012, dated 2017).

Legend:
[1] = target: Human sodium/glucose co-transporter type 1 (SGLT1) (Homo sapiens (Human), UniProt P13866); assay: In vitro human SGLT1 inhibition assay (14C-AMG uptake); type: cell-based; set-up: key to SGLT1 (human SGLT1 IC50): ***: a value less than 0.01 μM; **: a value less than 0.1 μM; *: a value less than 1 μM; —: a value not measured or exceeding μM; settings: HEK293 cells expressing human HA-SGLT1, 14C-AMG uptake
Sequence of Human sodium/glucose co-transporter type 1 (SGLT1) (P13866 whole entry): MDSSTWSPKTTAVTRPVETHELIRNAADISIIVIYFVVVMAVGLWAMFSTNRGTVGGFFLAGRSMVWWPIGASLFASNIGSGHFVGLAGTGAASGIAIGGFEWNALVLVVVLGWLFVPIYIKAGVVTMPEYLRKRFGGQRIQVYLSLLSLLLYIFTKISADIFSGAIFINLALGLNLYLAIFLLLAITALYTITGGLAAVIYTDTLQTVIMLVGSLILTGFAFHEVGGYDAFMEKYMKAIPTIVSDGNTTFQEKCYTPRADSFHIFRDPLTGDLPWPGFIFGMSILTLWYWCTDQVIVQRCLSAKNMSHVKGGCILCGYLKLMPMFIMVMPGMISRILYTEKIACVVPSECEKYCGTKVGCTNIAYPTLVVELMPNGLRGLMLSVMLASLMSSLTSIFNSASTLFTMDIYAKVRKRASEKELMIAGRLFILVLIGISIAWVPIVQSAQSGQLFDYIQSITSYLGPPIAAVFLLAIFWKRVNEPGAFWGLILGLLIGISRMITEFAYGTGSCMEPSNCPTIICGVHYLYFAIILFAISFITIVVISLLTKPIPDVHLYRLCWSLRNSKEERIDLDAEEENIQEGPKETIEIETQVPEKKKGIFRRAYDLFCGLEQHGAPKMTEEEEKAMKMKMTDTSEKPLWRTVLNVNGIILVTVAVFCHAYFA
Description: Human sodium/glucose co-transporter type 1 (SGLT1; accession number NP_000334; GI: 4507031) was cloned into pIRESpuro2 vector for mammalian expression (construct: HA-SGLT1-pIRESpuro2).
HEK293 cells were transfected with the human HA-SGLT1-pIRESpuro2 vector and the bulk stable cell line was selected in presence of 0.5 μg/mL of puromycin. Human HA-SGLT1 cells were maintained in DMEM media containing 10% FBS, 1% GPS and 0.5 μg/mL of puromycin.
The HEK293 cells expressing the human HA-SGLT1 were seeded in 384 well plates (30,000 cells/well) in DMEM media containing 10% FBS, 1% GPS and 0.5 μg/mL of puromycin, then incubated overnight at 37 C, 5% CO2. Cells were then washed with uptake buffer (140 mM NaCl, 2 mM KCl, 1 mM CaCl2, 1 mM MgCl2, 10 mM HEPES, 5 mM Tris, 1 mg/mL bovine serum albumin (BSA), pH 7.3). Twenty microliters of uptake buffer with or without testing compounds were added to the cells. Then, 20 microliters of uptake buffer containing ^14C-AMG (100 nCi) were also added to cells. The cell plates were incubated at 37° C., 5% CO2 for 1-2 hours. After washing the cells with uptake buffer, scintillation fluid was added (40 microliters/well) and ^14C-AMG uptake was measured by counting radioactivity using a scintillation coulter (TopCoulter NXT; Packard Instruments).

[2] = target: Human sodium/glucose co-transporter type 2 (SGLT2) (Homo sapiens (Human), UniProt P31639); assay: In vitro human SGLT2 inhibition assay (14C-AMG uptake); type: cell-based; set-up: key to SGLT2 (human SGLT2 IC50): ***: a value less than 0.01 μM; **: a value less than 0.1 μM; *: a value less than 1 μM; —: a value not measured or exceeding μM; settings: HEK293 cells expressing human HA-SGLT2, 14C-AMG uptake
Sequence of Human sodium/glucose co-transporter type 2 (SGLT2) (P31639 whole entry): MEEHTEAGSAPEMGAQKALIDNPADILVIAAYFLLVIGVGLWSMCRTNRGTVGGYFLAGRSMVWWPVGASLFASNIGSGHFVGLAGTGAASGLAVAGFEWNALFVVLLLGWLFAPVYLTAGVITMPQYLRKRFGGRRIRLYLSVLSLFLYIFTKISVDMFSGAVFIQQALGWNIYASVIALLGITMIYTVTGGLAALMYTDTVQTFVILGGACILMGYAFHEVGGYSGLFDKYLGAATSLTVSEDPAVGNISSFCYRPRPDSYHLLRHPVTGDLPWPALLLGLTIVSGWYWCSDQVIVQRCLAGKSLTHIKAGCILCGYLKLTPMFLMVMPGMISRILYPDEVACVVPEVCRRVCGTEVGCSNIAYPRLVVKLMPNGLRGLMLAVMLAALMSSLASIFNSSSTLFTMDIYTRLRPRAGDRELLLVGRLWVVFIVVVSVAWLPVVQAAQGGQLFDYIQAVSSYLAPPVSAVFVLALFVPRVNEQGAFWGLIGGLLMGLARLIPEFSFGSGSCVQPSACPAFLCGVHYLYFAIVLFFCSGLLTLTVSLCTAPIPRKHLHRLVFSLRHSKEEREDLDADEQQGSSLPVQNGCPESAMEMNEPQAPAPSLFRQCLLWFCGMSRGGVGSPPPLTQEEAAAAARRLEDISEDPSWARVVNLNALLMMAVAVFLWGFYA
Description: Human sodium/glucose co-transporter type 2 (SGLT2; accession number P31639; GI:400337) was cloned into pIRESpuro2 vector for mammalian expression (construct: HA-SGLT2-pIRESpuro2).
HEK293 cells were transfected with the human HA-SGLT2-pIRESpuro2 vector and the bulk stable cell line was selected in presence of 0.5 μg/mL of puromycin. Human HA-SGLT2 cells were maintained in DMEM media containing 10% FBS, 1% GPS and 0.5 μg/mL of puromycin.
The HEK293 cells expressing the human HA-SGLT2 were seeded in 384 well plates (30,000 cells/well) in DMEM media containing 10% FBS, 1% GPS and 0.5 μg/mL of puromycin, then incubated overnight at 37 C, 5% CO2. Cells were then washed with uptake buffer (140 mM NaCl, 2 mM KCl, 1 mM CaCl2, 1 mM MgCl2, 10 mM HEPES, 5 mM Tris, 1 mg/mL bovine serum albumin (BSA), pH 7.3). Twenty microliters of uptake buffer with or without testing compounds were added to the cells. Then, 20 microliters of uptake buffer containing ^14C-AMG (100 nCi) were added to the cells. The cell plates were incubated at 37° C., 5% CO2 for 1-2 hours. After washing the cells with uptake buffer, scintillation fluid was added (40 microliters/well) and ^14C-AMG uptake was measured by counting radioactivity using a scintillation coulter (TopCoulter NXT; Packard Instruments).

`CS[C@H]1O[C@@H](c2ccc(C)c(Cc3ccc(/C=C/C(=O)N4CCN(C)CC4)cc3)c2)[C@H](O)[C@@H](O)[C@@H]1O` [(E)-3-(4-(2-methyl-5-((2S,3R,4R,5S,6R)-3,4,5-trihydroxy-6-(methylthio)tetrahydro-2H-pyran-2-yl)benzyl)phenyl)-1-(4-methylpiperazin-1-yl)prop-2-en-1-one] gave an IC50 [1] of less than 100 nM and an IC50 [2] of less than 10 nM.
`COc1ccc(Cc2cc([C@@H]3O[C@H](SC)[C@@H](O)[C@H](O)[C@H]3O)ccc2OC(F)(F)F)cc1` [(2S,3R,4R,5S,6R)-2-(3-(4-methoxybenzyl)-4-(trifluoromethoxy)phenyl)-6-(methylthio)tetrahydro-2H-pyran-3,4,5-triol] was tested, and the “SGLT1 (human SGLT1 IC50)” value [1] was “—” and the “SGLT2 (human SGLT2 IC50)” value [2] was “—”.
For `CCNC(=O)CCCOc1ccc(Cc2cc([C@@H]3O[C@H](SC)[C@@H](O)[C@H](O)[C@H]3O)ccc2Cl)cc1` [4-(4-(2-chloro-5-((2S,3R,4R,5S,6R)-3,4,5-trihydroxy-6-(methylthio)tetrahydro-2H-pyran-2-yl)benzyl)phenoxy)-N-ethylbutanamide], the IC50 [1] was less than 100 nM and the IC50 [2] was less than 10 nM.
With `CS[C@H]1O[C@@H](c2ccc(C)c(Cc3ccc(OCCCC(=O)N[C@@H](C)C(N)=O)cc3)c2)[C@H](O)[C@@H](O)[C@@H]1O` [N-((S)-1-amino-1-oxopropan-2-yl)-4-(4-(2-methyl-5-((2S,3R,4R,5S,6R)-3,4,5-trihydroxy-6-(methylthio)tetrahydro-2H-pyran-2-yl)benzyl)phenoxy)butanamide] the IC50 [1] was less than 100 nM and the IC50 [2] was less than 10 nM.
Compound `CS[C@H]1O[C@@H](c2ccc(Cl)c(Cc3ccc(OCCNC(=O)C(C)(C)CO)cc3)c2)[C@H](O)[C@@H](O)[C@@H]1O` [N-(2-(4-(2-chloro-5-((2S,3R,4R,5S,6R)-3,4,5-trihydroxy-6-(methylthio)tetrahydro-2H-pyran-2-yl)benzyl)phenoxy)ethyl)-3-hydroxy-2,2-dimethylpropanamide] has an IC50 [1] of less than 10 nM and an IC50 [2] of less than 10 nM.
Compound `CS[C@H]1OC(c2ccc(C)c(Cc3ccc(CCCCCl)cc3)c2)[C@H](O)[C@@H](O)[C@@H]1O` (stereo partly drawn) [(3R,4R,5S,6R)-2-(3-(4-(4-chlorobutyl)benzyl)-4-methylphenyl)-6-(methylthio)tetrahydro-2H-pyran-3,4,5-triol] has an IC50 [1] of less than 10 nM and an IC50 [2] of less than 10 nM.
Work on `CS[C@H]1O[C@@H](c2ccc(C)c(Cc3ccc(OCCCNCC(C)(C)C(N)=O)cc3)c2)[C@H](O)[C@@H](O)[C@@H]1O` [2,2-dimethyl-3-((3-(4-(2-methyl-5-((2S,3R,4R,5S,6R)-3,4,5-trihydroxy-6-(methylthio)tetrahydro-2H-pyran-2-yl)benzyl)phenoxy)propyl)-amino)propanamide] yielded an IC50 [1] of less than 10 nM and an IC50 [2] of less than 10 nM.
`CS[C@H]1O[C@@H](c2ccc(Cl)c(Cc3ccc(OCCCNC(=N)N)cc3)c2)[C@H](O)[C@@H](O)[C@@H]1O` [1-(3-(4-(2-chloro-5-((2S,3R,4R,5S,6R)-3,4,5-trihydroxy-6-(methylthio)tetrahydro-2H-pyran-2-yl)benzyl)phenoxy)propyl)guanidine] gave an IC50 [1] of less than 10 nM and an IC50 [2] of less than 10 nM.
`CS[C@H]1O[C@@H](c2ccc(C)c(Cc3ccc(CCCC(=O)NC(C)(C)C(=O)NC4CCN(C(=O)OC(C)(C)C)CC4)cc3)c2)[C@H](O)[C@@H](O)[C@@H]1O` [tert-butyl 4-(2-methyl-2-(4-(4-(2-methyl-5-((2S,3R,4R,5S,6R)-3,4,5-trihydroxy-6-(methylthio)tetrahydro-2H-pyran-2-yl)benzyl)phenyl)butanamido)propanamido)piperidine-1-carboxylate] was tested, and the IC50 [1] was less than 10 nM and the IC50 [2] was less than 10 nM.
For `CS[C@H]1O[C@@H](c2ccc(C)c(Cc3ccc(OCCCC(=O)NC(C)(C)C(=O)O)cc3)c2)[C@H](O)[C@@H](O)[C@@H]1O` [2-methyl-2-(4-(4-(2-methyl-5-((2S,3R,4R,5S,6R)-3,4,5-trihydroxy-6-(methylthio)tetrahydro-2H-pyran-2-yl)benzyl)phenoxy)butanamido)propanoic acid], the IC50 [1] was less than 10 nM and the IC50 [2] was less than 10 nM.
`CS[C@H]1O[C@@H](c2ccc(C)c(Cc3ccc(CCCC(=O)NC(C)(C)C(=O)NCCN(C)C)cc3)c2)[C@H](O)[C@@H](O)[C@@H]1O` [N-(1-((2-(dimethylamino)ethyl)amino)-2-methyl-1-oxopropan-2-yl)-4-(4-(2-methyl-5-((2S,3R,4R,5S,6R)-3,4,5-trihydroxy-6-(methylthio)tetrahydro-2H-pyran-2-yl)benzyl)phenyl)butanamide] gave an IC50 [1] of less than 10 nM and an IC50 [2] of less than 10 nM.
In the case of `CS[C@H]1O[C@@H](c2ccc(C)c(Cc3ccc(CCCCNCC(C)(C)C(=O)N4CCN(C)CC4)cc3)c2)[C@H](O)[C@@H](O)[C@@H]1O` [2,2-dimethyl-3-((4-(4-(2-methyl-5-((2S,3R,4R,5S,6R)-3,4,5-trihydroxy-6-(methylthio)tetrahydro-2H-pyran-2-yl)benzyl)phenyl)butyl)amino)-1-(4-methylpiperazin-1-yl)propan-1-one], the IC50 [1] is reported as less than 10 nM and the IC50 [2] is reported as less than 10 nM.
`CS[C@H]1O[C@@H](c2ccc(C)c(Cc3ccc(OCCCC(=O)NCC(C)(C)C(N)=O)cc3)c2)[C@H](O)[C@@H](O)[C@@H]1O` [N-(3-amino-2,2-dimethyl-3-oxopropyl)-4-(4-(2-methyl-5-((2S,3R,4R,5S,6R)-3,4,5-trihydroxy-6-(methylthio)tetrahydro-2H-pyran-2-yl)benzyl)phenoxy)butanamide] gave an IC50 [1] of less than 100 nM and an IC50 [2] of less than 10 nM.
`CS[C@H]1O[C@@H](c2ccc(C)c(Cc3ccc(CCCCC(=O)NC(C)(C)CO)cc3)c2)[C@H](O)[C@@H](O)[C@@H]1O` [N-(1-hydroxy-2-methylpropan-2-yl)-5-(4-(2-methyl-5-((2S,3R,4R,5S,6R)-3,4,5-trihydroxy-6-(methylthio)tetrahydro-2H-pyran-2-yl)benzyl)phenyl)pentanamide] showed an IC50 [1] of less than 10 nM and an IC50 [2] of less than 10 nM.
Compound `CS[C@H]1O[C@@H](c2ccc(C)c(Cc3ccc(CCCCNC(=O)NC(C)(C)C(N)=O)cc3)c2)[C@H](O)[C@@H](O)[C@@H]1O` [2-methyl-2-(3-(4-(4-(2-methyl-5-((2S,3R,4R,5S,6R)-3,4,5-trihydroxy-6-(methylthio)tetrahydro-2H-pyran-2-yl)benzyl)phenyl)butyl)ureido)propanamide] has an IC50 [1] of less than 10 nM and an IC50 [2] of less than 10 nM.
`CS[C@H]1O[C@@H](c2ccc(Cl)c(Cc3ccc(OCCCC(=O)O)cc3)c2)[C@H](O)[C@@H](O)[C@@H]1O` [4-(4-(2-chloro-5-((2S,3R,4R,5S,6R)-3,4,5-trihydroxy-6-(methylthio)tetrahydro-2H-pyran-2-yl)benzyl)phenoxy)butanoic acid] showed an IC50 [1] of less than 1000 nM and an IC50 [2] of less than 10 nM.
With `COC(=O)CCCOc1ccc(Cc2cc([C@@H]3O[C@H](SC)[C@@H](O)[C@H](O)[C@H]3O)ccc2Cl)cc1` [methyl 4-(4-(2-chloro-5-((2S,3R,4R,5S,6R)-3,4,5-trihydroxy-6-(methylthio)tetrahydro-2H-pyran-2-yl)benzyl)phenoxy)butanoate] the “SGLT1 (human SGLT1 IC50)” value [1] was “—” and the “SGLT2 (human SGLT2 IC50)” value [2] was “—”.
`CS[C@H]1O[C@@H](c2ccc(Cl)c(Cc3ccc(OCCCC(=O)N(C)C(C)(C)C(N)=O)cc3)c2)[C@H](O)[C@@H](O)[C@@H]1O` [N-(1-amino-2-methyl-1-oxopropan-2-yl)-4-(4-(2-chloro-5-((2S,3R,4R,5S,6R)-3,4,5-trihydroxy-6-(methylthio)tetrahydro-2H-pyran-2-yl)benzyl)phenoxy)-N-methylbutanamide] gave an IC50 [1] of less than 10 nM and an IC50 [2] of less than 10 nM.
`CS[C@H]1O[C@@H](c2ccc(C)c(Cc3ccc(CCCC(=O)NC(C)(C)C(=O)N4CCC(C)CC4)cc3)c2)[C@H](O)[C@@H](O)[C@@H]1O` [N-(2-methyl-1-(4-methylpiperidin-1-yl)-1-oxopropan-2-yl)-4-(4-(2-methyl-5-((2S,3R,4R,5S,6R)-3,4,5-trihydroxy-6-(methylthio)tetrahydro-2H-pyran-2-yl)benzyl)phenyl)butanamide] gave an IC50 [1] of less than 10 nM and an IC50 [2] of less than 10 nM.
